Values quoted from earlier work, collected in patent US20030203963A1, “Antimicrobial agent” (priority 2001, published 2003).

How the values were obtained:
Conditions in all cases: cited from earlier work
[1] = tested on: Gram-positive bacteria, yeasts, and moulds
[2] = tested on: aerobic, Gram-negative bacteria
Salmonella = tested on: Salmonella
[3] = tested on: yeasts and moulds as well as catalase-positive bacteria
bacteria = tested on: bacteria

O=S=O [Sulphur Dioxide]
Effective concentrations [1]: 800-2000 ppm
Effective concentrations for inhibition [2]: 250-500 ppm

Nisin
Inhibition of Salmonella (Salmonella; in food): unable to inhibit

O=NO [nitrite]
Concentration at which Salmonella is inhibited (Salmonella; meat products): > 1,000 ppm

C/C=C/C=C/C(=O)O [Sorbic Acid]
Effective concentration [3]: 500-3000 ppm

Propionic Acid and Propionate
Concentrations necessary for inhibition of bacteria (bacteria): > 16000 ppm
